Laboratory results from US7179801B2, “Cephem compounds” (Astellas Pharma Inc., priority 2001, dated 2007).
Values after ≈ are worked out from the molar mass of the structure shown.

Tested on: Pseudomonas aeruginosa FP 2056
Experiment: In vitro antibacterial activity (MIC), two-fold agar-plate dilution method
Type: cell-based
Conditions: FP2056; test strain Pseudomonas aeruginosa FP 2056; heart infusion agar, 37° C. for 20 hours; read-out: MIC (minimal inhibitory concentration)
Method: In vitro antibacterial activity was determined by the two-fold agar-plate dilution method as described below. One loopful of an overnight culture of each test strain in Trypticase-soy broth (10^6 viable cells per ml) was streaked-on heart infusion agar (HI-agar) containing graded concentrations of representative test compound, and the minimal inhibitory concentration (MIC) was expressed in μg/ml after incubation at 37° C. for 20 hours.

Compound | MIC
Cn1c(N)c(CCCN)c[n+]1CC1=C(C(=O)[O-])N2C(=O)[C@@H](NC(=O)/C(=N\OC(C)(C)C(=O)O)c3nsc(N)n3)[C@H]2SC1 [Compound (a), 7β-[(Z)-2-(5-amino-1,2,4-thiadiazol-3-yl)-2-(1-carboxy-1-methylethoxyimino)acetamido]-3-[3-amino-4-(3-aminopropyl)-2-methyl-1-pyrazolio]methyl-3-cephem-4-carboxylate] | 1 µg/mL (≈ 1.61 µM)
Cn1c(N)c(CCN)c[n+]1CC1=C(C(=O)[O-])N2C(=O)[C@@H](NC(=O)/C(=N\OC(C)(C)C(=O)O)c3nsc(N)n3)[C@H]2SC1 [Compound (b), 7β-[(Z)-2-(5-amino-1,2,4-thiadiazol-3-yl)-2-(1-carboxy-1-methylethoxyimino)acetamido]-3-[3-amino-4-(2-aminoethyl)-2-methyl-1-pyrazolio]methyl-3-cephem-4-carboxylate] | 0.5 µg/mL (≈ 0.821 µM)
